Structures are written as SMILES.

The target in the assay is T1, human β-Secretase (Homo sapiens, UniProt P56817).
T1 construct: soluble part of the human β-Secretase (AA 1-AA 460); Fc domain of IgG1; made in house
Nature of the assay: TR-FRET assay (β-secretase enzyme, sBACE-Fc). The assay is classed as biochemical. As to conditions: soluble human β-secretase (sBACE-Fc), substrate (Europium)[…](Qsy7) 100 nM, pH4.5; read-out: IC50 in TR-FRET assay. How it is done: The β-secretase enzyme used in the TR-FRET is prepared as follows:
The cDNA for the soluble part of the human β-Secretase (AA 1-AA 460) was cloned using the ASP2-Fc10-1-IRES-GFP-neoK mammalian expression vector. The gene was fused to the Fc domain of IgG1 (affinity tag) and stably cloned into HEK 293 cells.
The robotic systems Biomek FX and Velocity 11 were used for all liquid handling and the enzyme and substrate solutions were kept on ice until they were placed in the robotic system. Enzyme (9 μl) was added to the plate then 1 μl of compound in dimethylsulphoxide was added, mixed and pre-incubated for 10 minutes. Substrate (10 μl) was then added, mixed and the reaction proceeded for 15 minutes at room temperature. The reaction was stopped with the addition of Stop solution (7 μl, NaAcetate, pH 9). […] The dimethylsulphoxide control, instead of test compound, defined the 100% activity level and 0% activity was defined by wells lacking enzyme (replaced with reaction buffer).
(In TR-FRET formats the signal depends on donor and acceptor labels being close together.)

T1 sequence (P56817 22-460): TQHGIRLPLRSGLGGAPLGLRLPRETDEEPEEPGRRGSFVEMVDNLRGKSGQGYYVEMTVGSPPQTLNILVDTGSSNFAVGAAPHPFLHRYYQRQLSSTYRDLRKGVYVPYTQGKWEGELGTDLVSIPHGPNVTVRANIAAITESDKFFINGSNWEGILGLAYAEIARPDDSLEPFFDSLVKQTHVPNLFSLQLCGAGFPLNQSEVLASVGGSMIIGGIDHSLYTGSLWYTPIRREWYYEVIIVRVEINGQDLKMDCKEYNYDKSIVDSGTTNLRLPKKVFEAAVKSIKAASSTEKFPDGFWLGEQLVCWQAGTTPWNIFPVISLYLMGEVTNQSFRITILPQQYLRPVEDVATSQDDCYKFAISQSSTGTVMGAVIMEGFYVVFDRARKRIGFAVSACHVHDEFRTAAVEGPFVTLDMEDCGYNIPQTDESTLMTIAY

Take `Cc1cc(C2(c3ccnc(-c4cncc(F)c4)c3)N=C(N)c3c(F)cccc32)nc(C)c1OC(F)F` (stereo not shown) [Example 53, 3-(5-Difluoromethoxy-4,6-dimethyl-pyridin-2-yl)-7-fluoro-3-(5′-fluoro-[2,3′]bipyridinyl-4-yl)-3H-isoindol-1-ylamine]: the IC50 (in general, the concentration at which inhibition is half-maximal) stood at 910 nM. Take `COc1c(C)cc(C2(c3cccc(-c4cncnc4)c3)N=C(N)c3c(F)cccc32)cc1C#N` (stereo not shown) [Example 54, 5-(3-Amino-4-fluoro-1-(3-(pyrimidin-5-yl)phenyl)-1H-isoindol-1-yl)-2-methoxy-3-methylbenzonitrile]: the IC50 came out at 42 nM. For the compound `NC1=NC(c2cccc(-c3cncnc3)c2)(c2ccnc(C(F)(F)F)c2)c2cc(Cl)cc(F)c21` (stereo not shown) [Example 55, 6-Chloro-4-fluoro-1-(3-(pyrimidin-5-yl)phenyl)-1-(2-(trifluoromethyl)pyridin-4-yl)-1H-isoindol-3-amine], the IC50 amounted to 150 nM.

For the compound `Cc1cc(C2(c3cccc(-c4cncnc4)c3)N=C(N)c3c(F)cc(Cl)cc32)ccn1` (stereo not shown) [Example 56, 6-Chloro-4-fluoro-1-(2-methylpyridin-4-yl)-1-(3-(pyrimidin-5-yl)phenyl)-1H-isoindol-3-amine], the IC50 turned out to be 230 nM.

These data come from patent US8030500B2, “Substituted isoindoles for the treatment and/or prevention of Aβ- related pathologies” (AstraZeneca AB, priority 2008, dated 2011).
